According to US20180008587A1, “THIOHYDANTOIN ANDROGEN RECEPTOR ANTAGONISTS FOR THE TREATMENT OF CANCER” (Jaressen Pharmaceutica NV, priority 2016, published 2018):
Residue numbers refer to the chain shown, from its start. Like-named read-outs stand apart in the source and are kept apart here.

Assays:
Type in all cases: cell-based
[1] = molecular target: T1, wild-type Androgen Receptor (AR-wt) (Homo sapiens, UniProt P10275); assay: LNCaP-AR-wt ANT reporter assay (ARE firefly luciferase, antagonist mode); settings: for IC50: antagonist mode, 400 pM R-1881 challenge, −Log10(IC50 [Molar]), read-out: LNCaP-AR-wt ANT pIC50 (converted); for Emax: read-out: LNCaP-AR-wt ANT MAX % Inh
T1 construct: expressed in transfected cells; host or cells: LNCaP (LNCaP AR (cs))
T1 sequence (P10275 1-920): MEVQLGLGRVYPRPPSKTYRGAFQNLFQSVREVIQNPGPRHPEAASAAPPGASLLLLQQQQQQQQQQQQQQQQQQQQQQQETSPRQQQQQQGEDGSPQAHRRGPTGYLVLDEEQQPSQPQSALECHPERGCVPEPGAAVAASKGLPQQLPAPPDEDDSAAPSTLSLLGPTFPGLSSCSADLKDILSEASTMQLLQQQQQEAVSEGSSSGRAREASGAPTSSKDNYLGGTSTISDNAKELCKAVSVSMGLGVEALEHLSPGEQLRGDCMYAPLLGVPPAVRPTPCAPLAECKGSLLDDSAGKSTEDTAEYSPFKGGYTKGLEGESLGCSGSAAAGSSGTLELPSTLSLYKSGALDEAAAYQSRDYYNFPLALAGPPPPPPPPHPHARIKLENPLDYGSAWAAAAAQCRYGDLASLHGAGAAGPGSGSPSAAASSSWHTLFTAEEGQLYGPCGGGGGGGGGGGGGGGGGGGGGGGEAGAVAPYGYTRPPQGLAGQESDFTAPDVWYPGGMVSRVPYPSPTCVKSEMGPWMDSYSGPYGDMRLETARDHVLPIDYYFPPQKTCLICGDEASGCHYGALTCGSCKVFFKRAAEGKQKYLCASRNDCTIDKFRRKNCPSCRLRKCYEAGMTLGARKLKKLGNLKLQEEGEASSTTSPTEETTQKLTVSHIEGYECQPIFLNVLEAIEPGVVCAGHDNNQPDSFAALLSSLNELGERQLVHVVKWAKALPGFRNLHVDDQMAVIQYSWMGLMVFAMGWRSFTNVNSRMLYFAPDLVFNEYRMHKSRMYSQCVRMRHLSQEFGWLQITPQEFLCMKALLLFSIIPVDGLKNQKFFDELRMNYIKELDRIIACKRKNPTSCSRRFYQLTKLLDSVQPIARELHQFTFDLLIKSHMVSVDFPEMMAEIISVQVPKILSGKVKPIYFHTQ
Description: (§1) A stable pooled-population cell line was generated using puromycin (Life Technologies) selection at 1:10,000 v/v. The protocol below was used for both cell lines and for testing of the compounds of Formula (I) of the present invention.
(§2) LNCaP cells were grown to about 80% confluence, media removed and cells rinsed in Hank's balanced salt solution prior to separation from the plate with 0.05% Trypsin EDTA. Cells were lifted and trypsin negated in complete CSS (charcoal stripped serum) culture media. […] Agonist challenge was at 400 pM for WT assay and 600 pM for F876L assay. Plates containing cells and compounds herein were incubated for a further 20-24 hours at 37° C., 5% CO2 before addition of 40 μL/well of Steady-Glo Luciferase Assay System Reagent (Promega# E2520). After 1 h, plates were read for luminescence on a BMG Pherastar.
(§3) EC/IC50 calculations were achieved utilizing calculated RLU data and data fitting macros. Data were fit using least-squares methods to the following formula: […]

[2] = molecular target: T1, wild-type Androgen Receptor (AR-wt); assay: LNCaP-AR-wt AG reporter assay (ARE firefly luciferase, agonist mode); settings: for Emax: read-out: LNCaP-AR-wt AG MAX % Stim
Description: as §1, §2, §3

[3] = molecular target: T2, F876L mutant Androgen Receptor (AR-F876L) (Homo sapiens, UniProt P10275, F877L); assay: LNCaP-AR-F876L ANT reporter assay (ARE firefly luciferase, antagonist mode); settings: for Emax: read-out: LNCaP-AR-F876L ANT MAX % Inh; for IC50: read-out: LNCaP-AR-F876L ANT pIC50 (converted)
T2 construct: expressed in transfected cells; host or cells: LNCaP (LNCaP F876L)
T2 sequence (P10275 1-920 F877L): T1 sequence (P10275 1-920) with F877L
Description: as §1, §2, §3

[4] = molecular target: T2, F876L mutant Androgen Receptor (AR-F876L); assay: LNCaP-AR-F876L AG reporter assay (ARE firefly luciferase, agonist mode); settings: for Emax: read-out: LNCaP-AR-F876L AG MAX % Stim
Description: as §1, §2, §3

[5] = maximum % inhibition of R1881 control response over tested concentration range
[6] = agonist mode, −Log10(EC50 [Molar]), read-out: LNCaP-AR-wt AG pEC50 (converted)
[7] = maximum % stimulation (agonist response) over tested concentration range
[8] = agonist mode, −Log10(EC50 [Molar]), read-out: LNCaP-AR-F876L AG pEC50 (converted)

| IC50 [1] [nM] | Emax [1, 5] [%] | EC50 [2, 6] [nM] | Emax [2, 7] [%] | Emax [3, 5] [%] | IC50 [3] [nM] | EC50 [4, 8] [nM] | Emax [4, 7] [%] | Compound | Emax [1] [%] | EC50 [2] [nM] | Emax [2] [%] | Emax [3] [%] | EC50 [4] [nM] | Emax [4] [%] |
| --- | --- | --- | --- | --- | --- | --- | --- | --- | --- | --- | --- | --- | --- | --- |
| 2450 | 99.5 | > 15100 | 0 | 99.7 | 724 | > 15100 | 0.1 | N#Cc1ncc(N2C(=O)C3(CCC3)N(c3ccc(C(=O)NCCN4CCOCC4)c(F)c3)C2=S)cc1C(F)(F)F [Cpd 22, 4-[6-[6-cyano-5-(trifluoromethyl)-3-pyridyl]-5-oxo-7-thioxo-6,8-diazaspiro[3.4]octan-8-yl]-2-fluoro-N-(2-morpholinoethyl)benzamide] |  |  |  |  |  |  |
| 1260 | 99.4 | > 15100 | 0.9 | 99.6 | 347 | > 15100 | 0 | CC(C)NC(=O)c1ccc(N2C(=S)N(c3cnc(C#N)c(C(F)(F)F)c3)C(=O)C23CCC3)cc1F [Cpd 23, 4-[6-[6-cyano-5-(trifluoromethyl)-3-pyridyl]-5-oxo-7-thioxo-6,8-diazaspiro[3.4]octan-8-yl]-2-fluoro-N-isopropyl-benzamide] |  |  |  |  |  |  |
| 331 | 100 | > 15100 | 0 | 99.5 | 229 | > 15100 | 0.1 | COCCCNC(=O)c1ccc(N2C(=S)N(c3cnc(C#N)c(C(F)(F)F)c3)C(=O)C23CCC3)cc1F [Cpd 24, 4-[6-[6-cyano-5-(trifluoromethyl)-3-pyridyl]-5-oxo-7-thioxo-6,8-diazaspiro[3.4]octan-8-yl]-2-fluoro-N-(3-methoxypropyl)benzamide] |  |  |  |  |  |  |
| 813 | 97.9 | > 15100 | 1.1 | 97.9 | 891 | > 15100 | 0.3 | Cc1ccc(CNC(=O)c2ccc(N3C(=S)N(c4cnc(C#N)c(C(F)(F)F)c4)C(=O)C34CCC4)cc2F)o1 [Cpd 26, 4-[6-[6-cyano-5-(trifluoromethyl)-3-pyridyl]-5-oxo-7-thioxo-6,8-diazaspiro[3.4]octan-8-yl]-2-fluoro-N-[(5-methyl-2-furyl)methyl]benzamide] |  |  |  |  |  |  |

The remaining lines, values behind:

| Compound | IC50 [1] [nM] | Emax [1, 5] [%] | EC50 [2, 6] [nM] | Emax [2, 7] [%] | Emax [3, 5] [%] | IC50 [3] [nM] | EC50 [4, 8] [nM] | Emax [4, 7] [%] | Emax [1] [%] | EC50 [2] [nM] | Emax [2] [%] | Emax [3] [%] | EC50 [4] [nM] | Emax [4] [%] |
| --- | --- | --- | --- | --- | --- | --- | --- | --- | --- | --- | --- | --- | --- | --- |
| CNS(=O)(=O)c1ccc(N2C(=S)N(c3cnc(C#N)c(C(F)(F)F)c3)C(=O)C23CCC3)cc1 [Cpd 25, 4-[6-[6-cyano-5-(trifluoromethyl)-3-pyridyl]-5-oxo-7-thioxo-6,8-diazaspiro[3.4]octan-8-yl]-N-methyl-benzenesulfonamide] | 1000 | 98 | > 15100 | 1.5 | 99.7 | 525 | > 15100 | 0.2 |  |  |  |  |  |  |
| CC(C)CCNC(=O)c1ccc(N2C(=S)N(c3cnc(C#N)c(C(F)(F)F)c3)C(=O)C23CCC3)cc1F [Cpd 27, 4-[6-[6-cyano-5-(trifluoromethyl)-3-pyridyl]-5-oxo-7-thioxo-6,8-diazaspiro[3.4]octan-8-yl]-2-fluoro-N-isopentyl-benzamide] | 912 |  |  |  |  | 631 |  |  | 96.8 | > 15100 | 0.4 | 98.8 | > 15100 | 0.2 |
| CN1CCC(Oc2ccc(N3C(=S)N(c4cnc(C#N)c(C(F)(F)F)c4)C(=O)C34CCC4)cc2F)CC1 [Cpd 28, 5-[8-[3-fluoro-4-[(1-methyl-4-piperidyl)oxy]phenyl]-5-oxo-7-thioxo-6,8-diazaspiro[3.4]octan-6-yl]-3-(trifluoromethyl)pyridine-2-carbonitrile] | 501 |  |  |  |  | 204 |  |  | 99.6 | > 15100 | -0.1 | 100 | > 15100 | 0 |
| Cc1ccc(N2C(=S)N(c3cnc(C#N)c(C)c3)C(=O)C23CCC3)cc1 [Cpd 29, 3-methyl-5-[5-oxo-8-(p-tolyl)-7-thioxo-6,8-diazaspiro[3.4]octan-6-yl]pyridine-2-carbonitrile] | 389 | 102 | > 15100 |  | 101 | 100 | > 15100 |  |  |  | 0.7 |  |  | 0.3 |
| CN1CCN(Cc2ccc(N3C(=S)N(c4cnc(C#N)c(C(F)(F)F)c4)C(=O)C34CCC4)cc2)CC1 [Cpd 30, 5-[8-[4-[(4-methylpiperazin-1-yl)methyl]phenyl]-5-oxo-7-thioxo-6,8-diazaspiro[3.4]octan-6-yl]-3-(trifluoromethyl)pyridine-2-carbonitrile] | 331 | 100 | > 15100 | 0.1 | 98.8 | 162 | > 15100 | 0.1 |  |  |  |  |  |  |
| N#Cc1ncc(N2C(=O)C3(CCC3)N(c3ccc(C(=O)NCc4ccccc4Cl)c(F)c3)C2=S)cc1C(F)(F)F [Cpd 31, N-[(2-chlorophenyl)methyl]-4-[6-[6-cyano-5-(trifluoromethyl)-3-pyridyl]-5-oxo-7-thioxo-6,8-diazaspiro[3.4]octan-8-yl]-2-fluoro-benzamide] | 2240 |  |  |  |  | 2240 |  |  | 98.6 | > 15100 | 0.2 | 91 | > 15100 | 0.3 |
| Cc1cc(N2C(=O)C3(CCC3)N(c3ccc(OCCc4ccccn4)c(F)c3)C2=S)cnc1C#N [Cpd 32, 5-[8-[3-fluoro-4-[2-(2-pyridyl)ethoxy]phenyl]-5-oxo-7-thioxo-6,8-diazaspiro[3.4]octan-6-yl]-3-methyl-pyridine-2-carbonitrile] | 490 | 102 | > 15100 | 0.7 | 101 | 282 | > 15100 | 0.1 |  |  |  |  |  |  |
